Test results as given in patent US20170196859A1, “PHARMACEUTICAL COMPOSITION COMPRISING PYRAZINE CARBOXAMIDE COMPOUND AS ACTIVE INGREDIENT” (Astellas Pharma Inc., priority 2014, published 2017).

How the values were obtained:
Assay type in all cases: cell-based
[1] = system: human histiocytic lymphoma cell line U-937 cells; experiment: Proliferation inhibition, U-937 cells (CellTiter-Glo); conditions: U-937, 72 h, 3 days culture
Procedure: U-937 is a cell line originated from human histiocytic lymphoma and the BTK expression has been confirmed (J. Immunol. 1994; 152(2):557-565). The human histiocytic lymphoma cell line U-937 cells (Sumitomo Dainippon Pharma Co., Ltd.) cultured in RPMI1640 medium (Sigma) containing 10% bovine serum were seeded into 96 well plates. On the same day, DMSO solutions of the test compound B at a final concentrations from 1 nM to 10 μM or only DMSO (DMSO group) were added thereto to culture the cells at 37° C. in 5% CO2 for 3 days. Thereafter, the cell number was measured using a cell counting reagent (CellTiter-Glo (registered trademark) Luminescent Cell Viability Assay (Promega)). The cell proliferation inhibition rate was calculated as the measured value in the DMSO group set as 0% inhibition and the measured value in the well only with the medium on which the cells have not been seeded set as 100% inhibition.

[2] = system: human anaplastic large cell lymphoma cell line SU-DHL-1 cells; experiment: Proliferation inhibition, SU-DHL-1 cells (CellTiter-Glo); conditions: SU-DHL-1, 96 h, 4 days culture
Procedure: SU-DHL-1 is a cell line originated from human anaplastic large cell lymphoma and the activation of JAK 3 has been confirmed (Leukemia. 2014; 28:941-944). The human anaplastic large cell lymphoma cell line SU-DHL-1 cells (American Type Culture Collection, CRL-2955) cultured in RPMI1640 medium (Sigma) containing 10% bovine serum were seeded into 96 well plates. On the same day, DMSO solutions of the test compound B at a final concentrations from 1 nM to 10 μM or only DMSO (DMSO group) was added thereto to culture the cells at 37° C. in 5% CO2 for 4 days. Thereafter, the cell number was measured using a cell counting reagent (CellTiter-Glo (registered trademark) Luminescent Cell Viability Assay (Promega)). The cell proliferation inhibition rate was calculated as the measured value in the DMSO group set as 0% inhibition and the measured value in the well only with the medium on which the cells have not been seeded set as 100% inhibition.

[3] = system: human acute T cell lymphoma cell line Jurkat 6.1E cells; experiment: Proliferation inhibition, Jurkat 6.1E cells (CellTiter-Glo); conditions: 96 h, 4 days culture
Procedure: Jurkat 6.1E is a cell line originated from human acute T cell lymphoma and the ITK expression has been confirmed (Mol. Pharmacol. 2012; 82:938-947). The human acute T cell lymphoma cell line Jurkat 6.1E cells (European Collection of Cell Cultures, 88042803) cultured in RPMI1640 medium (Sigma) containing 10% bovine serum were seeded into 96 well plates. On the same day, DMSO solutions of the test compound B at a final concentrations from 1 nM to 10 μM or only DMSO (DMSO group) were added thereto to culture the cells at 37° C. in 5% CO2 for 4 days. Thereafter, the cell number was measured using a cell counting reagent (CellTiter-Glo (registered trademark) Luminescent Cell Viability Assay (Promega)). The cell proliferation inhibition rate was calculated as the measured value in the DMSO group set as 0% inhibition and the measured value in the well only with the medium on which the cells have not been inoculated set 100% inhibition.

SMILES: C=CC(=O)N1CC[C@@H](Oc2nc(Nc3ccc(N4CCC(N5CCN(C)CC5)CC4)cc3)c(C(N)=O)nc2CC)C1 [test compound B, 5-{[(3R)-1-acryloylpyrrolidin-3-yl]oxy}-6-ethyl-3-({4-[4-(4-methylpiperazin-1-yl)piperidin-1-yl]phenyl}amino)pyrazine-2-carboxamide monomethanesulfonate]
- IC50 [1]: 63 nM
- IC50 [2]: 120 nM
- IC50 [3]: 940 nM
